Reference: patent US20160137630A1, “INDUCTION OF GATA2 BY HDAC1 AND HDAC2 INHIBITORS” (ACETYLON PHARMACEUTICALS, INC., priority 2014, published 2016)
Where two headings read alike, the source gives them in different places.

Columns and labels:
[1] = pharmacokinetics of Compound 001 in rats; type: in vivo; settings: rat, plasma, read-out: minimum drug exposure for the entire dosing period
Description: I. A. Rats were dosed once daily by oral gavage for 6 consecutive days at 0 mg/kg, 10 mg/kg, or 30 mg/kg per dose (See FIG. 25A). Dosing days are indicated by a down arrow (FIG. 25A). Peripheral blood was drawn on the indicated days and analyzed for drug level in plasma (PK), complete blood counts (CBC), or isolation of total ribonucleic acid (RNA). C. […] Points are the average of replicate animals, error bars are the standard deviation of replicate animals (FIG. 25C).

[2] = test system: HbG mRNA; test: % HbG mRNA induction in 2-phase culture systems CS1 and CS2; type: cell-based, human
Description: Then, the cells were differentiated by exposure to either vehicle (control) or Compound 001. RNA samples of HbG were taken at days 0, 3, 5, and 8. […] Staining cells with a FITC-conjugated anti-HbF antibody and flow cytometry was used to measure induction of fetal hemoglobin.

[3] = test system: BFU-E colonies derived from human bone marrow mononuclear cells; test: % HbG mRNA in BFU-E colonies; type: cell-based; settings: FIG. 18A
Description: Increases in % HbG resulting from HDAC1/2 inhibition were due to increased HbG and decreased HbB (FIGS. 18B, 21D and 21E).

[4] = test system: Gata2; test: Gata2 shRNA knockdown with Compound 001 treatment; type: cell-based, human
Description: In FIG. 13A-D, expanded hematopoietic progenitors were infected with lentivirus carrying short hairpin RNAs (shRNA) directed against the Gata2 gene (shG2-1, shG2-2) or a non-targeting control shRNA (shCtrl). Transduced cells were selected by puromycin treatment. […] RNA was isolated at the indicated time points and the level of Gata2 mRNA was determined by quantitative real time PCR (QRT-PCR). In FIG. 7A, K562 cells were infected with lentivirus as described above. […] RNA was isolated at indicated time point and the level of Gata2 mRNA was determined by quantitative real time PCR (QRT-PCR). In FIG. 7B, protein levels at Day 3 were determined by Western blot using antibodies against Gata2 and beta-actin as a loading control. […] Data was first normalized to beta-actin control and then expressed relative to vehicle treated cells.
Since Gata2 levels decline during erythroid differentiation (FIGS. 1B and 1C), knockdown experiments were performed entirely in CS1 expansion media, which supports hematopoietic progenitors, and maintained Gata2 mRNA at a constant level in shCtrl cells following infection (FIG. 13B). Gata2 mRNA was reduced by 85% or 50% in shG2-1 or shG2-2 cells, respectively, while Gata2 protein was reduced by 50% by each hairpin, relative to shCtrl cells (FIG. 13B and FIG. 13D).

[5] = test system: human bone marrow mononuclear cells; test: colony formation assays; settings: 1 μM
[6] = test system: Gata2 regulatory regions; test: Gata2 ChIP-seq at the Gata2 locus; type: cell-based; settings: −1.8 kb region
Description: As above, differentiation profiles of compound treated cells were highly similar to control cells (FIG. 23A). It was observed that Gata2 occupancy at the Gata2 locus is tightly correlated between K562 and primary erythroid progenitors. In both cases, binding was limited to the +9.5, −1.8, −2.8, and −3.9 kb regulatory regions (data not shown).

[7] = blood cell counts in rats; type: in vivo; settings: rat
Description: (§1) I. A. Rats were dosed once daily by oral gavage for 6 consecutive days at 0 mg/kg, 10 mg/kg, or 30 mg/kg per dose (See FIG. 25A). Dosing days are indicated by a down arrow (FIG. 25A). Peripheral blood was drawn on the indicated days and analyzed for drug level in plasma (PK), complete blood counts (CBC), or isolation of total ribonucleic acid (RNA). […] For each individual rat, white blood cell counts were expressed relative to their predose level (time=day 0). Points are the average of n=4 animals with error bars showing the standard deviation.

[8] = biological target: HDAC3 (Homo sapiens, UniProt O15379); test: in vitro biochemical HDAC inhibition assay
Sequence of HDAC3 (O15379 whole entry): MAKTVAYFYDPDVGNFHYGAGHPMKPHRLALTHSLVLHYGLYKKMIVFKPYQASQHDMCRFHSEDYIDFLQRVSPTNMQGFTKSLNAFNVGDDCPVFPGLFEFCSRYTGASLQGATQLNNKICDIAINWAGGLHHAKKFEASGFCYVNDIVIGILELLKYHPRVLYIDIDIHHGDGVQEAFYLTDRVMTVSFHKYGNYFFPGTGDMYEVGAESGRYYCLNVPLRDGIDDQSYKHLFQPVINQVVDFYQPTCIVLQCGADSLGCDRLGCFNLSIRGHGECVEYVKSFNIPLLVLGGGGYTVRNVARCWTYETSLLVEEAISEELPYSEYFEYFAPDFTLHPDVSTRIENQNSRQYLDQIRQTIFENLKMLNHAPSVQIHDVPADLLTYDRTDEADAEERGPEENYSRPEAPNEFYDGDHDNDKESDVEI
Sequence of HDAC3 (Q9Y618 395-489 partner limits assumed): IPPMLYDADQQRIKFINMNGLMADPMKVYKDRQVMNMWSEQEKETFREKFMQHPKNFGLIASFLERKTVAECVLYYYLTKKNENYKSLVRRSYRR

[9] = test system: HbG mRNA; test: HbG mRNA levels in peripheral blood of monkeys; type: in vivo, cynomolgus monkey; settings: monkey, 25 and 75 mg/kg; FIG. 27C-D
Description: B. Cynomolgus monkey were dosed once daily by oral gavage for 5 consecutive days at 0 mg/kg, 25 mg/kg, or 75 mg/kg per dose (FIG. 25B). Sampling as described in ‘A’.
For each individual monkey, HbG mRNA was expressed relative to HbB mRNA and then normalized to their predose level (time=day 0). Points are the median of n=3 animals with error bars showing the range.

[10] = test system: HbE mRNA; test: HbE mRNA levels in peripheral blood of rats; type: in vivo; settings: rat, 10 and 30 mg/kg; FIG. 27A-B
Description: as §1, with “HbE mRNA was” for “white blood cell counts were”, “relative to HbB mRNA and then normalized” for “relative”, “deviation (FIG. 27A).” for “deviation.”

[11] = test system: Gata2 regulatory regions; test: ChIP-QPCR of histone acetylation at Gata2 regulatory regions; type: cell-based
Description: In chromatin state maps these histone modifications, especially H3K9ac and H3K27ac, have been associated with active regulatory regions, such as enhancers and promoters of actively transcribed genes. The differentiation profile was unaffected by compound treatment and similar to that of cells used in experiments above (FIG. 23B).

[12] = biological target: HDAC2 (Homo sapiens, UniProt Q92769)
Sequence of HDAC2 (Q92769 whole entry): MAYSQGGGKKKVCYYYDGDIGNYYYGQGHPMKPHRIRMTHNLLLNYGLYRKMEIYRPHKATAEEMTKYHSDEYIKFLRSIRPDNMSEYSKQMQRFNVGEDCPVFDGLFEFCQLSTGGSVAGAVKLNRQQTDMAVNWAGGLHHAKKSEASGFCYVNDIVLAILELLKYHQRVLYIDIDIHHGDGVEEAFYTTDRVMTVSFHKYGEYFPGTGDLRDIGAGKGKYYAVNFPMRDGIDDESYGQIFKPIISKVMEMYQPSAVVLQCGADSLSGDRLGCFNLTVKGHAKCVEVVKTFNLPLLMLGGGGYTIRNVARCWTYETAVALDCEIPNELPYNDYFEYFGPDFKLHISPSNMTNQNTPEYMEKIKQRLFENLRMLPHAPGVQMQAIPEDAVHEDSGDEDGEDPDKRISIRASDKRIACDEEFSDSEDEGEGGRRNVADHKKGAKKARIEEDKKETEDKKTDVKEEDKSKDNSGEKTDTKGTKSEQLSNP

[13] = test system: human bone marrow-derived CD34+ cells; test: viability of expanded CD34+ cells; type: cell-based; settings: 2 days of treatment
Description: This possibility was first tested by measuring the viability of expanded human bone marrow-derived CD34+ cells, composed of primitive and more differentiated hematopoietic progenitors of multiple lineages, following 2 days of treatment with compound.

With `Nc1ccc(-c2cccs2)cc1NC(=O)c1ccc2nc(N3CCNCC3)ccc2c1` [Compound 001, N-(2-amino-5-(thiophen-2-yl)phenyl)-2-(piperazin-1-yl)quinoline-6-carboxamide] the concentration at 6 days ([1]; high dose (30 mg/kg once daily oral gavage, 6 days)) was no less than 5000 nM, the concentration at 6 days ([1]; low dose (10 mg/kg once daily oral gavage, 6 days)) was no less than 1000 nM and the “% HbG” value ([2]; 1 μM, increased from 10%) was 46%. The “induction in % HbG” value ([2]; differentiation phase, both culture systems, FIG. 10B, 21A-C) was “dose- and time-dependent induction”, the “% HbG” value [3] was “increased % HbG in a dose-dependent manner” and the “Gata2 mRNA induction” value ([4]; 1 uM, cells expressing shCtrl) was 1.4 fold. For the same compound, the Gata2 protein induction ([4]; 1 uM, cells expressing shCtrl) was 5 fold, the “reduction of magnitude of HbG mRNA induction relative to shCtrl cells” value ([4]; shG2-1 and shG2-2 cells) was 25% and the “number of CFU-E colonies” value [5] was “no effect”. The “number of CFU-GM colonies” value [5] was “no effect”, the “number of CFU-MK colonies” value [5] was “significantly suppressed” and the “size and number of BFU-E colonies” value [5] was “no effect”. For the same compound, the “maximum increase in Gata2 binding (peak height)” value [6] was 3 fold, the RBC or platelets [7] was “no detected affect” and the “time of peak white blood cell suppression after the last dose” value [7] was 1 days. The “time to recovery of white blood cell counts to baseline after the last dose” value [7] was 5 days, the white blood cells ([7]; 10 or 30 mg/kg for 6 days) was “reversible suppression” and the “selectivity over HDAC3” value [8] was “approximately 100 fold”. For the same compound, the IC50 ([8]; Table 2, read-out: IC50 HDAC3) was 114 nM, the IC50 ([8]; pre-incubation time of 24 hours, FIG. 9A, 17B, read-out: IC50 against HDAC3) was 1300 nM and the “HbG mRNA relative to HbB mRNA, normalized to predose” value [9] was “dose-dependent increase”. For the same compound, the “HbE mRNA relative to HbB mRNA, normalized to predose” value [10] was “dose-dependent increase”, the “increase in histone H3K9, H2BK5, and H3K27 acetylation” value ([11]; +9.5 kb and −3.9 kb regions) was 3 fold and the “increase in histone H3K9, H2BK5, and H3K27 acetylation” value ([11]; −1.8 kb and −2.8 kb regulatory regions) was 6 fold. The IC50 [12] was 42 nM, the “fold less cytotoxic than Entinostat” value [13] was 10 fold and the IC50 ([13]; Homo sapiens, 48 h, FIG. 19A) was 45000 nM.
